# Source: patent US12440481B2, “Esters and carbamates as modulators of sodium channels” (VERTEX PHARMACEUTICALS INCORPORATED, priority 2019, dated 2025)
# Target: human NaV 1.8 (Homo sapiens, UniProt Q9Y5Y9)
# Test: E-VIPR Assay for Detecting and Measuring NaV Inhibition Properties
# Format: cell-based
# Details: HEK cells expressing a truncated form of human NaV 1.8; HS = human serum; read-out: EVIPR HS IC50
# Text: E-VIPR Assay for Detecting and Measuring NaV Inhibition Properties
# Sodium ion channels are voltage-dependent proteins that can be activated by inducing membrane voltage changes by applying electric fields. The electrical stimulation instrument and methods of use, referred to as E-VIPR, are described in International Publication No. WO 2002/008748 A3 and C.-J. Huang et al. Characterization of voltage-gated sodium channel blockers by electrical stimulation and fluorescence detection of membrane potential, 24 Nature Biotech. 439-46 (2006), both of which are incorporated by reference in their entirety. The instrument comprises a microtiter plate handler, an optical system for exciting the coumarin dye while simultaneously recording the coumarin and oxonol emissions, a waveform generator, a current- or voltage-controlled amplifier, and parallel electrode pairs that are inserted into assay plate wells. Under integrated computer control, this instrument passes user-programmed electrical stimulus protocols to cells within the wells of the microtiter plate.
# 16-20 hours prior to running the assay on E-VIPR, HEK cells expressing a truncated form of human NaV 1.8 with full channel activity were seeded into microtiter 384-well plates, pre-coated with matrigel, at a density of 25,000 cells per well. 2.5-5% KIR2.1 Bacmam virus was added to the final cell suspension before seeding into cell plates. HEK cells were grown in Dulbecco's Modified Eagle's Medium (DMEM) supplemented with 10% FBS (Fetal Bovine Serum, qualified; Sigma #F4135), 1% NEAA (Non-Essential Amino Acids, Gibco #11140), 1% HEPES (Gibco #15630), 1% Pen-Strep (Penicillin-Streptomycin; Gibco #15140) and 5 μg/ml Blasticidin (Gibco #R210-01). Cells were expanded in vented cap cell culture flasks, with 90-95% humidity and 5% CO2.
# Reagents and Stock Solutions:
# • 100 mg/mL Pluronic F-127 (Sigma #P2443), in dry DMSO • Compound Plates: Corning 384-well Polypropylene Round Bottom #3656 • Cell Plates: 384-well tissue culture treated plates (Greiner #781091-1B) • 2.5-5% KIR 2.1 Bacmam virus (produced in-house), prepared as described in Section 3.3 of J. A. Fornwald et al., Gene Expression in Mammalian Cells Using BacMam, a Modified Baculovirus System, 1350 Methods in Molecular Biology 95-116 (2016), the entire contents of which are incorporated by reference. The concentration used can be dependent on viral titer of each batch. • 5 mM DiSBAC6 (3), a voltage sensitive oxonol acceptor (CAS number 169211-44-3; 5-[3-(1,3-dihexylhexahydro-4,6-dioxo-2-thioxo-5-pyrimidinyl)-2-propen-1-ylidene]-1,3-dihexyldihydro-2-thioxo-4,6(1H,5H)-pyrimidinedione), in dry DMSO. The preparation of DiSBAC6 (3) is analogous to that of DiSBAC4 (3) as described in Voltage Sensing by Fluorescence Resonance Energy Transfer in Single Cells, Gonzalez, J. E. and Tsien, R. Y. (1995) Biophys. J. 69, 1272-1280. • 5 mM CC2-DMPE, a commercially available membrane-bound coumarin phospholipid FRET donor (ThermoFisher Scientific catalog number K1017, CAS number 393782-57-5; tetradecanoic acid, 1,1′-[(1R)-1-[8-(6-chloro-7-hydroxy-2-oxo-2H-1-benzopyran-3-yl)-3-hydroxy-3-oxido-8-oxo-2,4-dioxa-7-aza-3-phosphaoct-1-yl]-1,2-ethanediyl] ester) was prepared in dry DMSO. […]
# Chain of human NaV 1.8 (Q9Y5Y9 whole entry, looked up): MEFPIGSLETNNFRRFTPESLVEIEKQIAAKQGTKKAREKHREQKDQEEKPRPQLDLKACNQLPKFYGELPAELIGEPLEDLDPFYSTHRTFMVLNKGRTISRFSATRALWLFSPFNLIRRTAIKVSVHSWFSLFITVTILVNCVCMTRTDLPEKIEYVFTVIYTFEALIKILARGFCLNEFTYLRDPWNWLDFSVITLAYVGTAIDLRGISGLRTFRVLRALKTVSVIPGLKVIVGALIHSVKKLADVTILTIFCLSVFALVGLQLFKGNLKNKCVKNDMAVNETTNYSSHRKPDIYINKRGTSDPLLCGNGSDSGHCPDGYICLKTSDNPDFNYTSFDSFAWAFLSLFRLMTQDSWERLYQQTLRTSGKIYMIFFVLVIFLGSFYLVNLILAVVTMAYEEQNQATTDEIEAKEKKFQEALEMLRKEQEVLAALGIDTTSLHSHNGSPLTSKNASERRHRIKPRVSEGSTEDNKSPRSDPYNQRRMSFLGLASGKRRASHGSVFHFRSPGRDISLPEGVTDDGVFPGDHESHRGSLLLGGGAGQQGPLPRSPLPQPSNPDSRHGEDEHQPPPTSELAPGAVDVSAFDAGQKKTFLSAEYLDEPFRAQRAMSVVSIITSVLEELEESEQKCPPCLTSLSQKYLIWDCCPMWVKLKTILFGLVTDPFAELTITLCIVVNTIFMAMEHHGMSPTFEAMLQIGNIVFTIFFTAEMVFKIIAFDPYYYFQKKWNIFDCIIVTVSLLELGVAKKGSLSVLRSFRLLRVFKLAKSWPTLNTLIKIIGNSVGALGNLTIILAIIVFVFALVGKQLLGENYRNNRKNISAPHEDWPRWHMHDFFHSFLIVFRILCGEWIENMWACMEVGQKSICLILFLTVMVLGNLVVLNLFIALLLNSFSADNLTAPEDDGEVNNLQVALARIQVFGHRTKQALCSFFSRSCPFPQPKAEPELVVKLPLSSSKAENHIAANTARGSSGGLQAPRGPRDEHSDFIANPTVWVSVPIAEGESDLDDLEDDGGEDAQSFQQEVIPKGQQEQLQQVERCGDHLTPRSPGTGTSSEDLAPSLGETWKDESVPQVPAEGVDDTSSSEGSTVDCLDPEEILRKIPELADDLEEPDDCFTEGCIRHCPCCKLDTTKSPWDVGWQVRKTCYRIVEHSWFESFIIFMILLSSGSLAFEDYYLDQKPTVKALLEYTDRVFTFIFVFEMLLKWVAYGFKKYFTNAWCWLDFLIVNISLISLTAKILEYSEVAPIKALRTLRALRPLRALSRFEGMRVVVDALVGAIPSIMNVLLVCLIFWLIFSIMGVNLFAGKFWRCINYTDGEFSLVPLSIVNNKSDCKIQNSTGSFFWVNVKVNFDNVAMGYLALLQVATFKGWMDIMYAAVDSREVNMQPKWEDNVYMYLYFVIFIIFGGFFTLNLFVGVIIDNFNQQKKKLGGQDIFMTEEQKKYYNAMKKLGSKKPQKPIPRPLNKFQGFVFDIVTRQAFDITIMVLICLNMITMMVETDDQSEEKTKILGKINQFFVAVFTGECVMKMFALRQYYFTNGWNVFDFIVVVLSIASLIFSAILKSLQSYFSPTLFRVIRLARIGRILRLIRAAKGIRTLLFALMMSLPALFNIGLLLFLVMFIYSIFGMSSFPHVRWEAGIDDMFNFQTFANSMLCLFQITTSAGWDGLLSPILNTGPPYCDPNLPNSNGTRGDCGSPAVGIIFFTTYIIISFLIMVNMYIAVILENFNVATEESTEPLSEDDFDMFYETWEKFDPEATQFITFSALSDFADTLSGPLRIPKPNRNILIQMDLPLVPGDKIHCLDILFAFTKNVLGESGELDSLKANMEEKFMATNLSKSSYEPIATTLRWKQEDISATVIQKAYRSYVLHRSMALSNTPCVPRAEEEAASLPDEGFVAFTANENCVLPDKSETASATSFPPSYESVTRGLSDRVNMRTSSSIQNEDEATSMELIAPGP
row,SMILES,IC50 [nM]
1,"COC(=O)c1ccnc(NC(=O)c2c(Oc3ccc(OC(F)(F)F)c(F)c3OC)ccc(C(F)(F)F)c2C)c1 [Compound 24, Methyl 2-[[6-[3-fluoro-2-methoxy-4-(trifluoromethoxy)phenoxy]-2-methyl-3-(trifluoromethyl)benzoyl]amino]pyridine-4-carboxylate]",≥ 1000
2,"COC(=O)c1cc(NC(=O)c2c(Oc3ccc(OC(F)(F)F)cc3OC)ccc(C(F)(F)F)c2O)ccn1 [Compound 25, Methyl 4-[[2-hydroxy-6-[2-methoxy-4-(trifluoromethoxy)phenoxy]-3-(trifluoromethyl)benzoyl]amino]pyridine-2-carboxylate]",100 to 500
3,"COC(=O)c1cc(NC(=O)c2c(Oc3ccc(OC(F)(F)F)cc3OC)ccc(C(F)(F)F)c2F)c(C2CC2)cn1 [Compound 26, methyl 5-cyclopropyl-4-(2-fluoro-6-(2-methoxy-4-(trifluoromethoxy)phenoxy)-3-(trifluoromethyl)benzamido)picolinate]",≥ 1000
4,"COC(=O)c1cc(NC(=O)c2c(Oc3ccc(OC(F)(F)F)c(F)c3OC)ccc(C(F)(F)F)c2F)c(C2CC2)cn1 [Compound 27, methyl 5-cyclopropyl-4-(2-fluoro-6-(3-fluoro-2-methoxy-4-(trifluoromethoxy)phenoxy)-3-(trifluoromethyl)benzamido)picolinate]",≥ 1000
5,"COC(=O)c1cc(NC(=O)c2c(Oc3ccc(OC(F)(F)F)c(F)c3OC)ccc(C(F)(F)F)c2C)c(C2CC2)cn1 [Compound 28, methyl 5-cyclopropyl-4-(6-(3-fluoro-2-methoxy-4-(trifluoromethoxy)phenoxy)-2-methyl-3-(trifluoromethyl)benzamido)picolinate]",≥ 1000
6,"COC(=O)c1nccc(NC(=O)c2c(Oc3ccc(OC(F)(F)F)cc3OC)ccc(C(F)(F)F)c2F)c1F [Compound 29, methyl 3-fluoro-4-(2-fluoro-6-(2-methoxy-4-(trifluoromethoxy)phenoxy)-3-(trifluoromethyl)benzamido)picolinate]",500 to 1000
7,COC(=O)c1nccc(NC(=O)c2c(Oc3ccc(OC(F)(F)F)c(F)c3OC)ccc(C(F)(F)F)c2F)c1F [Compound 30],100 to 500
8,"COC(=O)c1nccc(NC(=O)c2c(Oc3ccc(OC(F)(F)F)c(F)c3OC)ccc(C(F)(F)F)c2C)c1F [Compound 31, methyl 3-fluoro-4-(6-(3-fluoro-2-methoxy-4-(trifluoromethoxy)phenoxy)-2-methyl-3-(trifluoromethyl)benzamido)picolinate]",≥ 1000
9,"COC(=O)c1nccc(NC(=O)c2c(Oc3ccc(OC(F)(F)F)c(F)c3OC)ccc(C(F)(F)F)c2C)c1C [Compound 32, methyl 4-(6-(3-fluoro-2-methoxy-4-(trifluoromethoxy)phenoxy)-2-methyl-3-(trifluoromethyl)benzamido)-3-methylpicolinate]",≥ 1000
10,"COC(=O)c1nccc(NC(=O)c2c(Oc3ccc(OC(F)(F)F)cc3OC)ccc(C(F)(F)F)c2C)c1C [Compound 33, methyl 4-(6-(2-methoxy-4-(trifluoromethoxy)phenoxy)-2-methyl-3-(trifluoromethyl)benzamido)-3-methylpicolinate]",≥ 1000
11,"COC(=O)c1nccc(NC(=O)c2c(Oc3ccc(OC(F)(F)F)c(F)c3OC)ccc(C(F)(F)F)c2F)c1C [Compound 34, methyl 4-(2-fluoro-6-(3-fluoro-2-methoxy-4-(trifluoromethoxy)phenoxy)-3-(trifluoromethyl)benzamido)-3-methylpicolinate]",≥ 1000
12,"COC(=O)c1cc(NC(=O)c2c(Oc3ccc(OC(F)(F)F)c(F)c3OC)ccc(C(F)(F)F)c2F)cc(C(=O)OC)n1 [Compound 35, dimethyl 4-(2-fluoro-6-(3-fluoro-2-methoxy-4-(trifluoromethoxy)phenoxy)-3-(trifluoromethyl)benzamido)pyridine-2,6-dicarboxylate]",100 to 500
